Tests used:
MCF7 cells = experiment: Inhibition of the proliferation of MCF7 cells (Cell Titer-Glo); format: cell-based; conditions: Homo sapiens, MCF-7 cells, 72 hours, read-out: IC50 value of inhibition effect on the proliferation of MCF7 cells
Method: The object of this experiment was to determine the inhibition effect of the compounds on the proliferation activity of MCF7 cells, and the in vitro activity of the compounds was evaluated according to the IC50 values.
MCF-7 cells (Cell Bank of Chinese Academy of Sciences typical culture preservation Committee, TChu 74) were inoculated into the MEM medium (Hyclone, SH30024.01B) containing 10% FBS (Gibco, 10099-141), 1% sodium pyruvate (Sigma, S8636), and 1% nonessential amino acids (Sigma, M7145) in a 96-well plate with a density of 40,000 cells/well, and the cells were incubated under the conditions of 37° C., and 5% CO2. The compound was prepared as a 20 mM stock solution that was later diluted to 1000× final concentration with 100% DMSO, and then diluted with 20-fold medium containing 2% FBS. After incubation for 24 hours, the medium was removed and 90 μl of the medium containing 2% FBS and 10 μl of the drug were added to each well, 10 […] of DMSO was added to the control group, and the blank group contained only 100 μl medium containing 2% FBS. The plate was gently shaken and incubated in a incubator at 37° C., 5% CO2. After 72 hours later, 50 μl of mixed Cell Titer-Glo (Promega, G7571) was added to each well. The plate was shaken until the ingredients were mixed uniformly, and placed at room temperature for 10 minutes, then the chemiluminescence signal value was determined. The inhibition effect of the compound AZD9496 at 100 nM on the proliferation of MCF-7 cells was set to 100%, the maximum inhibition rate of other compounds=(chemiluminescence signal valuenegative control−chemiluminescence signal valuecompound 100 nm)/(chemiluminescence signal valuenegative control−chemiluminescence signal valueAZD9496 100 nm)×100%, and the negative control was a well with 0.5% DMSO.
The values of the chemiluminescence signals vs the logarithmic concentrations of the compounds were plotted using Graghpad Prism to obtain the IC50 values.

ER (estrogen receptor) = biological target: T1, ER (estrogen receptor) (Homo sapiens, UniProt P03372); experiment: Inhibition of the binding of estrogen (E) to estrogen receptor (ER), MCF-7/ERE-luciferase reporter cells; format: cell-based; conditions: MCF-7/ERE-luciferase cells, 0.1 nM estradiol, 24 hours, chemiluminescence; read-out: IC50 value of inhibition effect on the binding of E to ER
T1 construct: MCF-7/ERE-luciferase monoclonal cells were selected by transfection of MCF-7; host or cells: MCF-7/ERE-luciferase (only the ERE-luciferase reporter was transfected)
T1 sequence (P03372 1-595): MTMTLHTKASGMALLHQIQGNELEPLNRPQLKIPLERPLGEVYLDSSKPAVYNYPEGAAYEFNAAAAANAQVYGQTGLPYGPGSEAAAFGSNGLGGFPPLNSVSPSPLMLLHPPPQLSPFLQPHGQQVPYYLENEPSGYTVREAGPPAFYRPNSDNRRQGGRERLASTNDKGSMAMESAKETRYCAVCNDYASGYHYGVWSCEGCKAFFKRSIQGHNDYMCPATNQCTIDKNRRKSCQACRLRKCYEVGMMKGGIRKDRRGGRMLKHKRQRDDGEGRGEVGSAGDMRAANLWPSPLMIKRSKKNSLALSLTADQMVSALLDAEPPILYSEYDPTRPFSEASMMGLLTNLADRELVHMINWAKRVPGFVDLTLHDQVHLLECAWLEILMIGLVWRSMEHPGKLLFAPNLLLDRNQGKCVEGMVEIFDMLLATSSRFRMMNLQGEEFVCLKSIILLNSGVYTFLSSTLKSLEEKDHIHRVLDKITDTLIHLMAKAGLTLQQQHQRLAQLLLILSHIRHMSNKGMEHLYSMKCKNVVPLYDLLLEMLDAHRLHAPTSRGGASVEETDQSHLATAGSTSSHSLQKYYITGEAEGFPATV
Method: The compounds of the present invention have an inhibition effect on the binding of E (estrogen) to ER (estrogen receptor), thereby blocking the binding of a complex of E and ER complex to ERE (estrogen responsive element), and subsequently blocking the expression of downstream luciferase protein.
The inhibition effect of the compounds on the binding of E to ER in vitro was tested by the following method.
The object of this experiment was to determine the inhibition effect of the compounds on the binding of E to ER, and the in vitro activity of the compounds was evaluated according to the IC50 values.
ERE was cloned into the upstream of the luciferase gene, and MCF-7/ERE-luciferase monoclonal cells were selected by transfection of MCF-7 (Cell Bank of Chinese Academy of Sciences typical culture preservation Committee, TCHu74). MCF-7/ERE-luciferase cells were inoculated into the MEM medium (hyclone, SH30024.01B) containing 10% charcoal stripped FBS (Moregate, FBSF), 1% sodium pyruvate (Sigma, S8636), 1% nonessential amino acids (Sigma, M7145) and 500 μg/ml G418 in a 96-well plates with a density of 30,000 cells/well, and the cells were incubated under the conditions of 37° C., and 5% CO2. The drug was prepared as a 20 mM stock solution that was later diluted with 100% DMSO in 10 fold concentration gradient, and then diluted 20-fold with the medium DMEM. After incubation for 24 hours, the medium was removed, then 0.1 nM estradiol (Sigma, E2758) and 10 μl of the drug diluted with the medium were added to each well, and the control group was added with DMSO. The plate was gently shaken and incubated in a incubator at 37° C., 5% CO2. After 24 hours, the cell culture medium was discarded, Then, 50 μl of the prepared luciferase substrate (Promega, E6110) was added to each well, and the plate was placed in the dark at room temperature for 10-15 minutes, then the chemiluminescence signal value was determined.
The inhibition effect of the compounds of the present invention on the binding of E to ER was tested by the experiment described above. The values of the chemiluminescence signal vs the logarithmic concentrations of the compounds were plotted using Graphpad Prism, and the measured IC50 values are shown in Table 1.

SMILES | IC50 (MCF7 cells) [nM] | IC50 (ER (estrogen receptor)) [nM]
CCn1cc(-c2ccc3c(c2)CC(C)N(c2ccc(C4CC4)cc2)C3c2ccc(/C=C/C(=O)O)cc2)cn1 [Example 13, (E)-3-(4-((1R,3R/1S,3S)-2-(4-Cyclopropylphenyl)-6-(1-ethyl-1H-pyrazol-4-yl)-3-methyl-1,2,3,4-tetrahydroisoquinolin-1-yl)phenyl)acrylic acid] | 1.12 | 0.27
CCc1ccc(N2C(C)Cc3cc(-c4cnn(CC)c4)ccc3C2c2ccc(/C=C/C(=O)O)cc2)cc1 [Example 17, (E)-3-(4-((1R,3R/1S,3S)-6-(1-Ethyl-1H-pyrazol-4-yl)-2-(4-ethylphenyl)-3-methyl-1,2,3,4-tetrahydroisoquinolin-1-yl)phenyl)acrylic acid] | 0.65 | 3.32
CCCc1ccc(N2C(C)Cc3cc(-c4cnn(C)c4)ccc3C2c2ccc(/C=C/C(=O)O)cc2)cc1 [Example 20, (E)-3-(4-((1R,3R/1S,3S)-3-Methyl-6-(1-methyl-1H-pyrazol-4-yl)-2-(4-propylphenyl)-1,2,3,4-tetrahydroisoquinolin-1-yl)phenyl)acrylic acid] | 4.53 | 
CCn1cc(-c2ccc3c(c2)CC(C)N(c2ccc(C4CC4)cc2F)C3c2ccc(/C=C/C(=O)O)cc2)cn1 [Example 22, (E)-3-(4-((1R,3R/1S,3S)-2-(4-Cyclopropyl-2-fluorophenyl)-6-(1-ethyl-1H-pyrazol-4-yl)-3-methyl-1,2,3,4-tetrahydroisoquinolin-1-yl)phenyl)acrylic acid] | 0.57 | 1
CCc1ccc(N2C(C)Cc3cc(-c4cnn(CC)c4)ccc3C2c2ccc(/C=C/C(=O)O)cc2)c(Cl)c1 [Example 23, (E)-3-(4-((1R,3R/1S,3S)-2-(2-Chloro-4-ethylphenyl)-6-(1-ethyl-1H-pyrazol-4-yl)-3-methyl-1,2,3,4-tetrahydroisoquinolin-1-yl)phenyl)acrylic acid] | 0.81 | 0.85
CCn1cc(-c2ccc3c(c2)CC(C)N(c2ccc(C4CC4)cc2Cl)C3c2ccc(/C=C/C(=O)O)cc2)cn1 [Example 24, (E)-3-(4-((1R,3R/1S,3S)-2-(2-Chloro-4-cyclopropylphenyl)-6-(1-ethyl-1H-pyrazol-4-yl)-3-methyl-1,2,3,4-tetrahydroisoquinolin-1-yl)phenyl)acrylic acid] | 0.9 | 1.81
CCn1cc(-c2ccc3c(c2)CC(C)N(c2ccc(C4CC4)cc2)C3c2ccc(/C=C/C(=O)O)cc2F)cn1 [Example 25, (E)-3-(4-((1S,3R/1R,3S)-2-(4-Cyclopropylphenyl)-6-(1-ethyl-1H-pyrazol-4-yl)-3-methyl-1,2,3,4-tetrahydroisoquinolin-1-yl)-3-fluorophenyl)acrylic acid] | 0.89 | 1.62
CCn1cc(-c2ccc3c(c2)CC(C)N(c2ccc(C4CC4)c(F)c2)C3c2ccc(/C=C/C(=O)O)cc2)cn1 [Example 26, (E)-3-(4-((1R,3R/1S,3S)-2-(4-Cyclopropyl-3-fluorophenyl)-6-(1-ethyl-1H-pyrazol-4-yl)-3-methyl-1,2,3,4-tetrahydroisoquinolin-1-yl)phenyl)acrylic acid] |  | 6.76
CCn1cc(-c2ccc3c(c2)C[C@@H](C)N(c2ccc(C4CC4)cc2C)[C@@H]3c2ccc(/C=C/C(=O)O)cc2)cn1 [Example 28, (E)-3-(4-((1R,3R)-2-(4-Cyclopropyl-2-methylphenyl)-6-(1-ethyl-1H-pyrazol-4-yl)-3-methyl-1,2,3,4-tetrahydroisoquinolin-1-yl)phenyl)acrylic acid] | 0.31 | 0.42
CC1Cc2cc(-c3cnn(C(F)F)c3)ccc2C(c2ccc(/C=C/C(=O)O)cc2)N1c1ccc(C2CC2)cc1 (centres unmarked) [Example 29] | 2.36 | 1.26
CCn1cc(-c2ccc3c(c2)CC(C)N(c2ccc(C4CC4)cc2)C3c2c(F)cc(/C=C/C(=O)O)cc2F)cn1 [Example 30, (E)-3-(4-((1S,3R/1R,3S)-2-(4-Cyclopropylphenyl)-6-(1-ethyl-1H-pyrazol-4-yl)-3-methyl-1,2,3,4-tetrahydroisoquinolin-1-yl)-3,5-difluorophenyl)acrylic acid] | 2.7 | 0.34
CCn1cc(-c2ccc3c(c2)C[C@@H](C)N(c2ccc(C4CC4)cc2)[C@@H]3c2c(F)cc(/C=C/C(=O)O)cc2F)cn1 [Example 32] | 0.42 | 0.74
Cc1ccc(N2[C@H](c3ccc(/C=C/C(=O)O)cc3)c3ccc(-c4cnn(C)c4)cc3C[C@H]2C)cc1 [Example 34] |  | 5.42
Cc1ncc(-c2ccc3c(c2)CC(C)N(c2ccc(C4CC4)cc2)C3c2ccc(/C=C/C(=O)O)cc2)s1 [Example 35, (E)-3-(4-((1R,3R/1S,3S)-2-(4-Cyclopropylphenyl)-3-methyl-6-(2-methylthiazol-5-yl)-1,2,3,4-tetrahydroisoquinolin-1-yl)phenyl)acrylic acid] | 1.03 | 1
CC1Cc2cc(-c3cnn(C)c3)ccc2C(c2ccc(/C=C/C(=O)O)cc2)N1c1ccc(C(C)(C)C)cc1 [Example 41, (E)-3-(4-((1R,3R/1S,3S)-2-(4-(tert-Butyl)phenyl)-3-methyl-6-(1-methyl-1H-pyrazol-4-yl)-1,2,3,4-tetrahydroisoquinolin-1-yl)phenyl)acrylic acid] |  | 8.08
CC1Cc2cc(-c3cnn(C)c3)ccc2C(c2ccc(/C=C/C(=O)O)cc2)N1c1ccc(CC(F)(F)F)cc1 [Example 43, (E)-3-(4-((1R,3R/1S,3S)-3-Methyl-6-(1-methyl-1H-pyrazol-4-yl)-2-(4-(2,2,2-trifluoroethyl)phenyl)-1,2,3,4-tetrahydroisoquinolin-1-yl)phenyl)acrylic acid] |  | 31.7
CCOc1ccc(N2C(C)Cc3cc(-c4cnn(C)c4)ccc3C2c2ccc(/C=C/C(=O)O)cc2)cc1 [Example 44, (E)-3-(4-((1R,3R/1S,3S)-2-(4-Ethoxyphenyl)-3-methyl-6-(1-methyl-1H-pyrazol-4-yl)-1,2,3,4-tetrahydroisoquinolin-1-yl)phenyl)acrylic acid] |  | 7.57
CCc1ccc(N2C(C)Cc3cc(-c4cnn(C)c4)ccc3C2c2ccc(/C=C/C(=O)O)cc2)c(CC)c1 [Example 45, (E)-3-(4-((1R,3R/1S,3S)-2-(2,4-Diethylphenyl)-3-methyl-6-(1-methyl-1H-pyrazol-4-yl)-1,2,3,4-tetrahydroisoquinolin-1-yl)phenyl)acrylic acid] |  | 4.06

Reference: US10398689B2, “Benzopiperidine derivative, preparation method thereof and medical use thereof” (Jiangsu Hengrui Medicine Co., Ltd., priority 2015, dated 2019)
